Results taken from PubChem BioAssay (NCI).
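Growth conditions: 96-well plates. Treatment: test compound, 48 hours, 5 concentrations. Analysis: linear interpolation between bracketing concentrations; unreached endpoints set to highest concentration. TGI marks complete inhibition of growth.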

Experiments:
Assay in all cases: NCI-60 cell line screen, 48 h
[1] = system: 786-0 renal
[2] = system: A498 renal
[3] = system: A549 NSCLC
[4] = system: ACHN renal
[5] = system: CAKI-1 renal
[6] = system: COLO 205 colon
[7] = system: DU-145 prostate
[8] = system: EKVX NSCLC
[9] = system: HCC-2998 colon
[10] = system: HCT-116 colon
[11] = system: HCT-15 colon
[12] = system: HL-60(TB) leukemia
[13] = system: HOP-62 NSCLC
[14] = system: HOP-92 NSCLC
[15] = system: HS 578T breast
[16] = system: HT29 colon
[17] = system: IGROV1 ovarian
[18] = system: K-562 leukemia
[19] = system: KM12 colon
[20] = system: LOX IMVI melanoma
[21] = system: M14 melanoma
[22] = system: MALME-3M melanoma
[23] = system: MCF7 breast
[24] = system: MDA-MB-231 breast
[25] = system: MDA-MB-435
[26] = system: MDA-N
[27] = system: MOLT-4 leukemia
[28] = system: NCI-H226 lung
[29] = system: NCI-H23 lung
[30] = system: NCI-H460 lung
[31] = system: NCI-H522 lung
[32] = system: NCI/ADR-RES ovarian
[33] = system: OVCAR-3 ovarian
[34] = system: OVCAR-4 ovarian
[35] = system: OVCAR-5 ovarian
[36] = system: PC-3 prostate
[37] = system: RPMI-8226 leukemia
[38] = system: RXF 393 renal
[39] = system: SF-268 CNS
[40] = system: SF-295 CNS
[41] = system: SF-539 CNS
[42] = system: SK-MEL-2 melanoma
[43] = system: SK-MEL-28 melanoma
[44] = system: SK-MEL-5 melanoma
[45] = system: SK-OV-3 ovarian
[46] = system: SN12C renal
[47] = system: SNB-19 CNS
[48] = system: SR leukemia
[49] = system: SW-620 colon
[50] = system: T-47D breast
[51] = system: TK-10 renal
[52] = system: U251 CNS
[53] = system: UACC-257 melanoma
[54] = system: UACC-62 melanoma
[55] = system: UO-31 renal
[56] = system: BT-549 breast
[57] = system: OVCAR-8 ovarian
[58] = system: SNB-75 CNS

Measured: TGI

O=C1OCC2(CO1)CC1C=CC2C1 (stereo unspecified)
> 100 µM: [1] | [2] | [3] | [4] | [5] | [6] | [7] | [8] | [9] | [10] | [11] | [12] | [13] | [14] | [15] | [16] | [17] | [18] | [19] | [20] | [21] | [22] | [23] | [24] | [25] | [26] | [27] | [28] | [29] | [30] | [31] | [32] | [33] | [34] | [35] | [36] | [37] | [38] | [39] | [40] | [41] | [42] | [43] | [44] | [45] | [46] | [47] | [48] | [49] | [50] | [51] | [52] | [53] | [54] | [55]

OCCOCn1cc(Cn2ncc3c(SCc4ccccc4)ncnc32)nn1
45.1 µM: [12]
35.1 µM: [25]
48.3 µM: [27]
37 µM: [26]
> 100 µM: [1] | [2] | [3] | [4] | [56] | [5] | [6] | [7] | [8] | [9] | [10] | [11] | [13] | [14] | [15] | [16] | [17] | [18] | [19] | [20] | [21] | [22] | [23] | [24] | [28] | [29] | [30] | [32] | [33] | [34] | [35] | [57] | [36] | [38] | [39] | [40] | [41] | [42] | [43] | [44] | [45] | [46] | [47] | [58] | [49] | [50] | [51] | [52] | [53] | [54] | [55]
99.2 µM: [31]
